Source: patent US9115089B2, “Methyl/fluoro-pyridinyl-methoxy substituted pyridinone-pyridinyl compounds and fluoro-pyrimidinyl-methoxy substituted pyridinone-pyridinyl compounds” (CONFLUENCE LIFE SCIENCES, INC., priority 2013, dated 2015)

Columns and labels:
Assay type in all cases: cell-based
[1] = test system: TNFα production in U937 cells; assay: LPS-induced TNFα production in differentiated U937 cells; details: Homo sapiens, U-937, LPS 0.1 μg/mL for 4 hours
Procedure: Therefore, inhibition of the p38 MAPK pathway will lower the inflammatory response by decreasing biosynthesis of proinflammatory cytokines. […] Evaluation of the potency and efficacy of p38 inhibitors to block cytokine production is carried out using the human U937 cell line. The U937 human pre-monocytic cell line is obtained from the American Type Culture Collection (Rockville, Md.). These cells are differentiated to a monocytic/macrophage phenotype as described by Burnette (Burnette et al, (2009). SD0006: a potent, selective and orally available inhibitor of p38 kinase, Pharmacology 84(1):42-60). Differentiated U937 cells are seeded into 96-well tissue culture plates (200,000 cells/well) in complete media. After 24 hours, the cells are pretreated for 60 minutes in the presence or absence of compound and then stimulated with LPS (0.1 μg/mL) for 4 hours. Culture media are then collected for determination of TNFα, IL-6 or IL-1β levels by ELISA. Cytokine concentrations are extrapolated from recombinant protein standard curves using a four-parameter logistic model and solving for IC50 after iterating to the best least-squares fit.

[2] = test system: IL-6 production in A549 cells; assay: IL-1-induced IL-6 production in A549 cells; details: Homo sapiens, 3 hours stimulation
Procedure: Adherent A549 cells (approximately 5 million per T75 cm^2 tissue culture flask) are grown in F-12K media containing 10% fetal bovine serum (FBS) plus antibiotics. The cells are trypsinized, washed and resuspended at 0.3 million per milliliter. A549 cells are then distributed into each well of a 96-well flat bottom tissue culture plate ([…]) and the 30,000 cells/well are allowed to recover, incubated, overnight. On the day of the assay fresh media ([…]) is added to the plates followed by the addition of compound ([…]/well, concentration response) for 1 hour. […] After 3 hours, cultured media ([…]/well) is transferred from the assay plate to a Meso Scale custom coated detection plate for determination of IL-6 levels. […] Read buffer ([…]/well, MSD 4× read buffer diluted 4-fold with dH2O) is added and the plate is read using the Meso Scale Sector Imager 6000. Upon electrical stimulation of the detection plate, co-reactants in the read buffer enhance an electrochemical reaction resulting in the release of energy in the form of light. This signal is captured by an internal CCD camera and quantitated. Viability of A549 cells is determined using an MTT assay. […] Isopropanol ([…]) is added to solubilize the resulting formazan crystals and the plate is read at 570 nm/650 nm using a Molecular Devices SpectraMax spectrophotometer.

[3] = test system: TNFα production in human whole blood; assay: Endotoxin-induced TNFα production from human whole blood; details: LPS 100 ng/ml, 3 hours, read-out: HWB TNFα IC50
Procedure: (§1) Human whole blood (HWB; 25-45 ml) was collected from an NSAID-free donor into vacutainer collection tubes containing sodium heparin (10 ml, 158 USP units), pooled and rocked gently before being distributed into each well of a 96-well round bottom tissue culture plate ([…]). Compounds ([…]/well, concentration response) are added and mixed gently for 15-20 seconds using a disposable 96 polypropylene pin tool before the plates are incubated at 37° C./5% CO2 for 1 hour. The HWB is stimulated with LPS (100 ng/ml) in a final assay volume of […]. After 3 hours, the plates are spun at 240×g for 5 minutes to pellet the red cells. The plasma is carefully transferred to another 96-well round bottom plate and diluted 2-fold with assay media (DMEM containing 10% fetal bovine serum (FBS) plus antibiotics). Finally, the diluted plasma ([…]/well) is transferred to Meso Scale detection plates for determination of IL-1, IL-6 or TNFα.

[4] = test system: IL-1β production in human whole blood; assay: Endotoxin-induced IL-1β production from human whole blood; details: LPS 100 ng/ml, 3 hours, read-out: HWB IL-1β IC50
Procedure: as §1

[5] = test system: IL-6 production in human whole blood; assay: Endotoxin-induced IL-6 production from human whole blood; details: LPS 100 ng/ml, 3 hours, read-out: HWB IL-6 IC50
Procedure: as §1

Work on Cc1cnc(-c2ccnc(C(C)(C)O)n2)cc1-n1c(C)cc(OCc2ncc(F)cc2F)c(Cl)c1=O [Compound 49, 3-chloro-4-((3,5-difluoropyridin-2-yl)methoxy)-2′-(2-(2-hydroxypropan-2-yl)pyrimidin-4-yl)-5′,6-dimethyl-2H-[1,4′-bipyridin]-2-one] yielded an IC50 [1] of 1.6 nM, an IC50 [2] of 1.8 nM and an IC50 [3] of 13 nM. It also gave an IC50 [4] of 6 nM and an IC50 [5] of 35 nM.
